Data: patent US10392404B2, “Compounds and compositions as kinase inhibitors” (NOVARTIS AG, priority 2014, dated 2019)

Key:
[1] = biological target: T1, C-RAF (Homo sapiens, UniProt P04049, Y340E/Y341E); assay: In vitro Raf activity determination (Alpha Screen, biotinylated kinase-dead MEK1 substrate), C-Raf; type: biochemical; settings: c-Raf approximately 4 nM; ATP 1 μM; pre-incubation 60 minutes; reaction 1 hour at room temperature
T1 construct: His tag (implied by nickel chromatography) (cleaved yes); StrepII tag (cleaved yes); made in house; host or cells: Sf9 insect cells (baculovirus), CRAF and h14-3-3 zeta co-expressed; MEK1 substrate from E. coli
T1 sequence (P04049 whole entry Y340E/Y341E): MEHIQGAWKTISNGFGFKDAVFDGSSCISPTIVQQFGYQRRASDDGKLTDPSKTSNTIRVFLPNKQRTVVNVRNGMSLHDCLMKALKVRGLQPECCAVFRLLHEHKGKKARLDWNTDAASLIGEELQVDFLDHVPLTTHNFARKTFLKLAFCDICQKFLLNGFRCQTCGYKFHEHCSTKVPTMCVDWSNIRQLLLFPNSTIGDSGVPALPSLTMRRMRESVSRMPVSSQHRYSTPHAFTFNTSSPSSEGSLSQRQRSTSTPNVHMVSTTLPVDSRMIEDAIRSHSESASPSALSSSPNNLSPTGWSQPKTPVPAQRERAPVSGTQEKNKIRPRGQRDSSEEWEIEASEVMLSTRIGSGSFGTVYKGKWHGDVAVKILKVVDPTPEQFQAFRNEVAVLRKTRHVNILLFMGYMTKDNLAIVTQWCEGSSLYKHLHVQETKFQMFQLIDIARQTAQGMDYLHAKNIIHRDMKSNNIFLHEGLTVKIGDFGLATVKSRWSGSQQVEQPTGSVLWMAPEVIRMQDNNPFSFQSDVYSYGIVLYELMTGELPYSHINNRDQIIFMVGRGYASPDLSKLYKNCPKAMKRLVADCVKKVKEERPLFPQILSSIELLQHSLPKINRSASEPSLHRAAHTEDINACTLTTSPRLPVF
T1 sequence (P63104 whole entry partner): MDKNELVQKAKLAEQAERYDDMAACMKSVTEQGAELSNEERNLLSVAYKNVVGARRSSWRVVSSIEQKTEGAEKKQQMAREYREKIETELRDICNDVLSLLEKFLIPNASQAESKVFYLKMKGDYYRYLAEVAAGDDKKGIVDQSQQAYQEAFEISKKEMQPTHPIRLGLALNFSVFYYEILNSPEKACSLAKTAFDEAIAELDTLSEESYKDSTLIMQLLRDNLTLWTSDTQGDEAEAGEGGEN
Description: CRAF cDNA was subcloned as full length protein, with Y340E and Y341E activating mutations, into a baculovirus expression vector for Sf9 insect cell expression. h14-3-3 zeta cDNA was subcloned into a baculovirus expression vector for SF9 insect cell expression. Sf9 cells co-expressing both proteins were lysed and subjected to immobilized nickel chromatography and eluted with Imidazole. A second column (StrepII binding column) was used and eluted with desthiobiotin. Protein Tags were removed using Prescission enzyme and the protein was further purified using a flowthrough step to remove tags.
C-Raf TR refers to a truncated C-Raf protein, a Δ1-324 deletion mutant. C-Raf FL refers to the full-length C-Raf protein.
(§1) Full length MEK1 with an inactivating K97R ATP binding site mutation is utilized as a RAF substrate. The MEK1 cDNA was subcloned with an N-terminal (his)6 tag into a vector for E. Coli expression. The MEK1 substrate was purified from E. Coli lysate by nickel affinity chromatography followed by anion exchange. The final MEK1 preparation was biotinylated (Pierce EZ-Link Sulfo-NHS-LC-Biotin) and concentrated.
(§2) Assay Materials: Assay buffer is 50 mM Tris, pH 7.5, 15 mM MgCl2, 0.01% Bovine Serum Albumin (BSA) and 1 mM dithiothreitol (DTT); Stop buffer is 60 mM ethylenediaminetetraacetic acid (EDTA) and 0.01% Tween® 20; b-Raf (V600E), active; biotinylated Mek, kinase dead; Alpha Screen detection kit (available from PerkinElmer™, #6760617R); Anti phospho-MEK1/2 (available from Cell Signaling Technology, Inc. #9121); 384 well low volume assay plates (White Greiner® plates).
(§3) Assay conditions: b-Raf (V600E) approximately 4 pM; c-Raf approximately 4 nM; biotinylated Mek, kinase dead approximately 10 nM; ATP 10 μM for BRAF (V600E) and 1 μM for CRAF; Pre-incubation time with compounds 60 minutes at room temperature; Reaction time 1 or 3 hours at room temperature.
(§4) Assay protocol: Raf and biotinylated Mek (kinase dead) were combined at 2× final concentrations in assay buffer (50 mM Tris, pH 7.5, 15 mM MgCl2, 0.01% BSA and 1 mM DTT) and dispensed […] per well in assay plates (Greiner white 384 well assay plates #781207) containing […] of 40× of a Raf kinase inhibitor test compound diluted in 100% DMSO. The plate was incubated for 60 minutes at room temperature. The Raf kinase activity reaction was started by the addition of […] per well of 2×ATP diluted in assay buffer. After 3 hours (b-Raf(V600E)) or 1 hour (c-Raf). The reactions were stopped and the phosphorylated product was measured using a rabbit anti-p-MEK (Cell Signaling, #9121) antibody and the Alpha Screen IgG (ProteinA) detection Kit (PerkinElmer #6760617R), by the addition of […] to the well of a mixture of the antibody (1:2000 dilution) and detection beads (1:2000 dilution of both beads) in Stop/bead buffer (25 mM EDTA, 50 mM Tris, pH 7.5, 0.01% Tween20). The additions were carried out under dark conditions to protect the detection beads from light. A lid was placed on top of the plate and incubated for 1 hour at room temperature, after which the luminescence was read on a PerkinElmer Envision instrument. The concentration of each compound for 50% inhibition (IC50) was calculated by non-linear regression using XL Fit data analysis software.

[2] = biological target: T2, b-Raf (V600E) (Homo sapiens, UniProt P15056, V600E); assay: In vitro Raf activity determination (Alpha Screen, biotinylated kinase-dead MEK1 substrate), B-Raf; type: biochemical; settings: b-Raf (V600E) approximately 4 pM; ATP 10 μM; pre-incubation 60 minutes; reaction 3 hours at room temperature
T2 construct: made in house
T2 sequence (P15056 whole entry V600E): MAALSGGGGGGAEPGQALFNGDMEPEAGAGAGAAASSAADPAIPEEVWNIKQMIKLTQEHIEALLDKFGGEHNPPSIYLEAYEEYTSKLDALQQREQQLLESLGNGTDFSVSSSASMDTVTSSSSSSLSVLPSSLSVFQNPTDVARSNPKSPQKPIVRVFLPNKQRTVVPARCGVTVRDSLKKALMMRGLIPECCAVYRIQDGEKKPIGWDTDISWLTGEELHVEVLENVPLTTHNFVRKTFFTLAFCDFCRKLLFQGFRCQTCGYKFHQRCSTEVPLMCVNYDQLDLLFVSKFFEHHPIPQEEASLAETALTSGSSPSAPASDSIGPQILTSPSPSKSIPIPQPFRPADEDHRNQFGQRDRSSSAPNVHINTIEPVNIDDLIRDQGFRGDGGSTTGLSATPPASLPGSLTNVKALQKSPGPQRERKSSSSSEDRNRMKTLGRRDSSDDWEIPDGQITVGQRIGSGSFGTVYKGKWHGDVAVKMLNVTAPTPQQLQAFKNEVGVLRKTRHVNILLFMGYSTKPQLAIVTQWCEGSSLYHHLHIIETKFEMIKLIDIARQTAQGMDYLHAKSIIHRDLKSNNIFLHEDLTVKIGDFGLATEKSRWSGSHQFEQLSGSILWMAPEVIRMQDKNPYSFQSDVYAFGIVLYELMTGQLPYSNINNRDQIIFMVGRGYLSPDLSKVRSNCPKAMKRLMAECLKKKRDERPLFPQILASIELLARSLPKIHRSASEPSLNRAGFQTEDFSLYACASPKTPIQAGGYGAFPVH
Method: as §1, §2, §3, §4

## Cc1ccc(NC(=O)c2ccnc(C(F)(F)F)c2)cc1-c1cnc(N(C)C)c(C#N)c1 [Example 25, N-(3-(5-cyano-6-(dimethylamino)pyridin-3-yl)-4-methylphenyl)-2-(trifluoromethyl) isonicotinamide]
[1]
  IC50: 0.127 nM
[2]
  IC50: 0.9 nM

## Cc1ncc(NC(=O)c2ccnc(C(C)(C)C#N)c2)cc1-c1cnc(N(C)C)c(C#N)c1 [Example 26, N-(5′-cyano-6′-(dimethylamino)-2-methyl-[3,3′-bipyridin]-5-yl)-2-(2-cyanopropan-2-yl)isonicotinamide]
[1]
  IC50: 1.78 nM
[2]
  IC50: 15 nM

## Cc1ccc(C(=O)Nc2cccc(C(F)(F)F)c2)cc1-c1cncc(C#N)c1 [Example 27, 3-(5-cyanopyridin-3-yl)-4-methyl-N-(3-(trifluoromethyl)phenyl)benzamide]
[1]
  IC50: 1.65 nM
[2]
  IC50: 21.1 nM

## Cc1ncc(NC(=O)c2ccnc(C(C)(C)C#N)c2)cc1-c1cnc(NC(C)C)c(C#N)c1 [Example 28, N-(5′-cyano-6′-(isopropylamino)-2-methyl-[3,3′-bipyridin]-5-yl)-2-(2-cyanopropan-2-yl)isonicotinamide]
[1]
  IC50: 2.55 nM
[2]
  IC50: 9.82 nM

## Cc1ccc(NC(=O)c2ccnc(C(C)(C)C#N)c2)cc1-c1cnc(N2CC(C)(O)C2)c(C#N)c1 [Example 29, N-(3-(5-cyano-6-(3-hydroxy-3-methylazetidin-1-yl)pyridin-3-yl)-4-methylphenyl)-2-(2-cyanopropan-2-yl)isonicotinamide]
[1]
  IC50: 0.671 nM
[2]
  IC50: 4.05 nM

## Cc1ncc(NC(=O)c2ccnc(C(C)(C)C#N)c2)cc1-c1cnc(N2CC(C)(O)C2)c(C#N)c1 [Example 30, N-(5′-cyano-6′-(3-hydroxy-3-methylazetidin-1-yl)-2-methyl-[3,3′-bipyridin]-5-yl)-2-(2-cyanopropan-2-yl) isonicotinamide]
[1]
  IC50: 3.69 nM
[2]
  IC50: 28.8 nM

## Cc1ccc(NC(=O)c2ccnc(C(C)(C)C#N)c2)cc1-c1cnc(Cl)c(C#N)c1 [Example 32, N-(3-(6-chloro-5-cyanopyridin-3-yl)-4-methylphenyl)-2-(2-cyanopropan-2-yl)isonicotinamide]
[1]
  IC50: 1.03 nM
[2]
  IC50: 5.73 nM

## Cc1ccc(NC(=O)c2cccc(C(F)(F)F)c2)cc1-c1cnc(Cl)c(C#N)c1 [Example 33, N-(3-(6-chloro-5-cyanopyridin-3-yl)-4-methylphenyl)-3-(trifluoromethyl)benzamide]
[1]
  IC50: 0.432 nM
[2]
  IC50: 3.4 nM

## Cc1ccc(NC(=O)c2cccc(C(F)(F)F)c2)cc1-c1cncc(C#N)c1 [Example 34, N-(3-(5-cyanopyridin-3-yl)-4-methylphenyl)-3-(trifluoromethyl) benzamide]
[1]
  IC50: 0.616 nM
[2]
  IC50: 3.9 nM

## Cc1ccc(NC(=O)c2ccnc(C(C)(C)C#N)c2)cc1-c1cncc(C#N)c1 [Example 35, 2-(2-cyanopropan-2-yl)-N-(3-(5-cyanopyridin-3-yl)-4-methylphenyl) isonicotinamide]
[1]
  IC50: 1.95 nM
[2]
  IC50: 11.1 nM

## COc1ncc(-c2cc(NC(=O)c3ccnc(C(C)(C)C#N)c3)ccc2C)cc1C#N [Example 36, N-(3-(5-cyano-6-methoxypyridin-3-yl)-4-methylphenyl)-2-(2-cyanopropan-2-yl)isonicotinamide]
[1]
  IC50: 0.479 nM
[2]
  IC50: 2.76 nM

## COc1ncc(-c2cc(NC(=O)c3cccc(C(F)(F)F)c3)ccc2C)cc1C#N [Example 37, N-(3-(5-cyano-6-methoxypyridin-3-yl)-4-methylphenyl)-3-(trifluoromethyl) benzamide]
[1]
  IC50: 0.16 nM
[2]
  IC50: 1.3 nM

## Cc1ncc(NC(=O)c2ccnc(C(C)(C)C#N)c2)cc1-c1cnc(N)c(C#N)c1 [Example 38, N-(6′-amino-5′-cyano-2-methyl-[3,3′-bipyridin]-5-yl)-2-(2-cyanopropan-2-yl)isonicotinamide]
[1]
  IC50: 1.81 nM
[2]
  IC50: 16.4 nM

## CCCNc1ncc(-c2cc(NC(=O)c3cccc(C(F)(F)F)c3)ccc2C)cc1C#N [Example 39, N-(3-(5-cyano-6-(propylamino)pyridin-3-yl)-4-methylphenyl)-3-(trifluoromethyl) benzamide]
[1]
  IC50: 0.429 nM
[2]
  IC50: 4.02 nM

## CCCNc1ncc(-c2cc(NC(=O)c3ccnc(C(F)(F)F)c3)ccc2C)cc1C#N [Example 40, N-(3-(5-cyano-6-(propylamino)pyridin-3-yl)-4-methylphenyl)-2-(trifluoromethyl) isonicotinamide]
[1]
  IC50: 0.233 nM
[2]
  IC50: 1.57 nM

## Cc1ccc(NC(=O)c2cccc(C(F)(F)F)c2)cc1-c1cc(C#N)c(N)nc1C [Example 41, N-(3-(6-amino-5-cyano-2-methylpyridin-3-yl)-4-methylphenyl)-3-(trifluoromethyl) benzamide]
[1]
  IC50: 1.08 nM
[2]
  IC50: 16.4 nM

## Cc1ccc(NC(=O)c2ccnc(C(F)(F)F)c2)cc1-c1cc(C#N)c(N)nc1C [Example 42, N-(3-(6-amino-5-cyano-2-methylpyridin-3-yl)-4-methylphenyl)-2-(trifluoromethyl) isonicotinamide]
[1]
  IC50: 0.672 nM
[2]
  IC50: 10.2 nM

## Cc1ncc(NC(=O)c2cccc(C(F)(F)F)c2)cc1-c1cnc(S(C)(=O)=O)c(C#N)c1 [Example 44, N-(5′-cyano-2-methyl-6′-(methylsulfonyl)-[3,3′-bipyridin]-5-yl)-3-(trifluoromethyl) benzamide]
[1]
  IC50: 2.8 nM
[2]
  IC50: 17.3 nM

## Cc1ncc(NC(=O)c2ccnc(C(F)(F)F)c2)cc1-c1cnc(S(C)(=O)=O)c(C#N)c1 [Example 45, N-(5′-cyano-2-methyl-6′-(methylsulfonyl)-[3,3′-bipyridin]-5-yl)-2-(trifluoromethyl) isonicotinamide]
[1]
  IC50: 1.13 nM
[2]
  IC50: 5.95 nM

## Cc1ccc(NC(=O)c2ccnc(C(F)(F)F)c2)cc1-c1cnc(S(C)(=O)=O)c(C#N)c1 [Example 46, N-(3-(5-cyano-6-(methylsulfonyl)pyridin-3-yl)-4-methylphenyl)-2-(trifluoromethyl) isonicotinamide]
[1]
  IC50: 2.11 nM
[2]
  IC50: 10.5 nM

## Cc1ncc(NC(=O)c2ccnc(C(F)(F)F)c2)cc1-c1cnc(-n2ccccc2=O)c(C#N)c1 [Example 51, N-(3′-cyano-2″- methyl-2-oxo-2H-[1,2′:5′,3″- terpyridin]-5″-yl)-2-(trifluoromethyl) isonicotinamide]
[1]
  IC50: 101 nM
[2]
  IC50: 447 nM

## Cc1ncc(NC(=O)c2ccnc(C(F)(F)F)c2)cc1-c1cnc(Oc2ccccn2)c(C#N)c1 [Example 52, N-(5′-cyano-2-methyl-6′-(pyridin-2-yloxy)-[3,3′-bipyridin]-5-yl)-2-(trifluoromethyl) isonicotinamide]
[1]
  IC50: 9.28 nM
[2]
  IC50: 27.2 nM

## Cc1ncc(NC(=O)c2ccnc(C(C)(C)C#N)c2)cc1-c1cnc(-n2ccccc2=O)c(C#N)c1 [Example 53, N-(3′-cyano-2″- methyl-2-oxo-2H-[1,2′:5′,3″- terpyridin]-5″-yl)-2 (2-cyanopropan-2-yl)isonicotinamide]
[1]
  IC50: 64 nM
[2]
  IC50: 285 nM

## Cc1ncc(NC(=O)c2ccnc(C(C)(C)C#N)c2)cc1-c1cnc(Oc2ccccn2)c(C#N)c1 [Example 54, N-(5′-cyano-2-methyl-6′-(pyridin-2-yloxy)-[3,3′-bipyridin]-5-yl)-2-(2-cyanopropan-2-yl)isonicotinamide]
[1]
  IC50: 7.88 nM
[2]
  IC50: 34.7 nM

## Cc1ncc(NC(=O)c2ccnc(C(C)(C)C#N)c2)cc1-c1cnc(N2CCS(=O)(=O)CC2)c(C#N)c1 [Example 55, N-(5′-cyano-6′-(1,1-dioxidothiomorpho-lino)-2-methyl-[3,3′-bipyridin]-5-yl)-2-(2-cyanopropan-2-yl)isonicotinamide]
[1]
  IC50: 2.36 nM
[2]
  IC50: 11.6 nM
